Experimental findings from patent US10954252B1, “Inhibitors of human immunodeficiency virus replication” (ViiV HEALTHCARE UK (NO.5) LIMITED, priority 2017, dated 2021) are described below.

For series [1], the system named is recombinant NL4-3 virus (nef section replaced with Renilla luciferase gene) in MT-2 cells. In words: HIV cell culture assay (antiviral activity, luciferase readout). As to conditions: Renilla, NL43, Table 1a; MT-2 cells infected for 4-5 days with recombinant NL4-3 luciferase virus. The series is classed as cell-based. The essentials: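 Serially diluted compounds were present throughout a 4-5 day infection of MT-2 cells by recombinant NL4-3 whose nef region partly encodes Renilla luciferase. Antiviral activity was taken from live-cell luciferase signal, with the 50% effective concentration fitted by the exponential median effect equation.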

Series [2] is described as follows: Compound cytotoxicity, XTT-based colorimetric assay. The series is classed as cell-based. As to conditions: human, uninfected MT2 cells, Table 1a, day 4, XTT. The method in brief:
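XTT colorimetric read-out on day 4 gave CC50 values, using MT2 cells left uninfected but otherwise handled as in the antiviral assay.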
(Formazan colour is commonly taken as a measure of viable cells.)

SMILES strings stand for the structures. Some results are limits rather than exact numbers.

In general, EC50 refers to the concentration at which the effect is half-maximal. In general, CC50 refers to the concentration giving 50% cytotoxicity. On to `COc1ccc(-n2c([C@H](Cc3cc(F)cc(F)c3)NC(=O)Cn3nc(C(F)F)c4c3C(F)(F)[C@@H]3C[C@H]43)nc3ncccc3c2=O)cn1` [Example 29, 2-[(2S,4R)-9-(difluoromethyl)-5,5-difluoro-7,8-diazatricyclo[4.3.0.0^2,4]nona-1(6),8-dien-7-yl]-N-[(1S)-2-(3,5-difluorophenyl)-1-[3-(6-methoxypyridin-3-yl)-4-oxo-3H,4H-pyrido[2,3-d]pyrimidin-2-yl]ethyl]acetamide], for which the EC50 in series [1] worked out at 26 nM. The same molecule registered a half-maximal cytotoxic concentration (CC50) at 4 days in series [2] above 10000 nM.

As to `O=C(Cn1nc(C(F)F)c2c1C(F)(F)[C@@H]1C[C@H]21)N[C@@H](Cc1cc(F)cc(F)c1)c1nc2ncccc2c(=O)n1-c1ccc(OC(F)F)cc1` [Example 30, N-[(1S)-1-{3-[4-(difluoromethoxy)phenyl]-4-oxo-3H,4H-pyrido[2,3-d]pyrimidin-2-yl}-2-(3,5-difluorophenyl)ethyl]-2-[(2S,4R)-9-(difluoromethyl)-5,5-difluoro-7,8-diazatricyclo[4.3.0.0^2,4]nona-1(6),8-dien-7-yl]acetamide], in series [1], the EC50 amounted to 5.03 nM. The molecule also displayed a cytotoxic concentration (CC50) at 4 days in series [2] of 3160 nM.

As for `O=C(Cn1nc(C(F)F)c2c1C(F)(F)[C@@H]1C[C@H]21)N[C@@H](Cc1cc(F)cc(F)c1)c1nc2ncccc2c(=O)n1-c1ccc2c(c1)C(=O)NC2` [Example 31, 2-[(2S,4R)-9-(difluoromethyl)-5,5-difluoro-7,8-diazatricyclo[4.3.0.0^2,4]nona-1(6),8-dien-7-yl]-N-[(1S)-2-(3,5-difluorophenyl)-1-[4-oxo-3-(3-oxo-2,3-dihydro-1H-isoindol-5-yl)-3H,4H-pyrido[2,3-d]pyrimidin-2-yl]ethyl]acetamide], the concentration for a half-maximal effect (EC50) in series [1] is 0.99 nM. Besides, the cytotoxic concentration (CC50) at 4 days in series [2] was above 10000 nM.

On to `CN(C)S(=O)(=O)c1ccc(-n2c([C@H](Cc3cc(F)cc(F)c3)NC(=O)Cn3nc(C(F)F)c4c3C(F)(F)[C@@H]3C[C@H]43)nc3ncccc3c2=O)cc1` [Example 32, 2-[(2S,4R)-9-(difluoromethyl)-5,5-difluoro-7,8-diazatricyclo[4.3.0.0^2,4]nona-1(6),8-dien-7-yl]-N-[(1S)-2-(3,5-difluorophenyl)-1-{3-[4-(dimethylsulfamoyl)phenyl]-4-oxo-3H,4H-pyrido[2,3-d]pyrimidin-2-yl}ethyl]acetamide], for which the concentration for a half-maximal effect (EC50) in series [1] worked out at 1.1 nM. This molecule also showed a cytotoxic concentration (CC50) at 4 days in series [2] above 10000 nM.

Turning to `NC(=O)c1cc(-n2c([C@H](Cc3cc(F)cc(F)c3)NC(=O)Cn3nc(C(F)F)c4c3C(F)(F)[C@@H]3C[C@H]43)nc3ncccc3c2=O)ccc1F` [Example 33, 5-{2-[(1S)-1-{2-[(2S,4R)-9-(difluoromethyl)-5,5-difluoro-7,8-diazatricyclo[4.3.0.0^2,4]nona-1(6),8-dien-7-yl]acetamido}-2-(3,5-difluorophenyl)ethyl]-4-oxo-3H,4H-pyrido[2,3-d]pyrimidin-3-yl}-2-fluorobenzamide], in series [1], the concentration giving a half-maximal response (EC50) worked out at 3.92 nM. For the same molecule, the half-maximal cytotoxic concentration (CC50) at 4 days in series [2] is above 10000 nM.

For `NC(=O)c1cc(-n2c([C@H](Cc3cc(F)cc(F)c3)NC(=O)Cn3nc(C(F)F)c4c3C(F)(F)[C@@H]3C[C@H]43)nc3ncccc3c2=O)ccc1Cl` [Example 34, 2-Chloro-5-{2-[(1S)-1-{2-[(2S,4R)-9-(difluoromethyl)-5,5-difluoro-7,8-diazatricyclo[4.3.0.0^2,4]nona-1(6),8-dien-7-yl]acetamido}-2-(3,5-difluorophenyl)ethyl]-4-oxo-3H,4H-pyrido[2,3-d]pyrimidin-3-yl}benzamide], the concentration giving a half-maximal response (EC50) in series [1] worked out at 6.93 nM. In series [2], this molecule yielded a CC50 at 4 days above 10000 nM.

Turning to `CC(C)c1ccc(-n2c([C@H](Cc3cc(F)cc(F)c3)NC(=O)Cn3nc(C(F)F)c4c3C(F)(F)[C@@H]3C[C@H]43)nc3ncccc3c2=O)cc1` [Example 35, 2-[(2S,4R)-9-(difluoromethyl)-5,5-difluoro-7,8-diazatricyclo[4.3.0.0^2,4]nona-1(6),8-dien-7-yl]-N-[(1S)-2-(3,5-difluorophenyl)-1-{4-oxo-3-[4-(propan-2-yl)phenyl]-3H,4H-pyrido[2,3-d]pyrimidin-2-yl}ethyl]acetamide], the half-maximal effective concentration (EC50) in series [1] stood at 16.3 nM. Moreover, the CC50 at 4 days in series [2] came to 1580 nM.

As to `O=C(Cn1nc(C(F)F)c2c1C(F)(F)[C@@H]1C[C@H]21)N[C@@H](Cc1cc(F)cc(F)c1)c1nc2ncccc2c(=O)n1-c1ccc2ncsc2c1` [Example 36, N-[(1S)-1-[3-(1,3-benzothiazol-6-yl)-4-oxo-3H,4H-pyrido[2,3-d]pyrimidin-2-yl]-2-(3,5-difluorophenyl)ethyl]-2-[(2S,4R)-9-(difluoromethyl)-5,5-difluoro-7,8-diazatricyclo[4.3.0.0^2,4]nona-1(6),8-dien-7-yl]acetamide], in series [1], the EC50 came out at 10.4 nM. For the same molecule, in series [2], the 50% cytotoxic concentration (CC50) at 4 days was above 1000 nM.

Take `N#Cc1cnc2nc([C@H](Cc3cc(F)cc(F)c3)NC(=O)Cn3nc(C(F)F)c4c3C(F)(F)[C@@H]3C[C@H]43)n(-c3ccc(C4CC4)cc3)c(=O)c2c1` [Example 39, N-[(1S)-1-[6-cyano-3-(4-cyclopropylphenyl)-4-oxo-3H,4H-pyrido[2,3-d]pyrimidin-2-yl]-2-(3,5-difluorophenyl)ethyl]-2-[(2S,4R)-9-(difluoromethyl)-5,5-difluoro-7,8-diazatricyclo[4.3.0.0^2,4]nona-1(6),8-dien-7-yl]acetamide]: the EC50 in series [1] came out at 3.76 nM. Moreover, in series [2], the CC50 at 4 days was determined as 2000 nM.

`Cc1cc(C)c2c(=O)n(-c3ccc(Cl)c4c(NS(C)(=O)=O)nn(C)c34)c([C@H](Cc3cc(F)cc(F)c3)NC(=O)Cn3nc(C(F)F)c4c3C(F)(F)[C@@H]3C[C@H]43)nc2n1` [Example 42.2, N-[(1S)-1-[3-(4-chloro-3-methanesulfonamido-1-methyl-1H-indazol-7-yl)-5,7-dimethyl-4-oxo-3H,4H-pyrido[2,3-d]pyrimidin-2-yl]-2-(3,5-difluorophenyl)ethyl]-2-[(2S,4R)-9-(difluoromethyl)-5,5-difluoro-7,8-diazatricyclo[4.3.0.0^2,4]nona-1(6),8-dien-7-yl]acetamide]: the concentration giving a half-maximal response (EC50) in series [1] amounted to 0.016 nM. The same molecule displayed a CC50 at 4 days in series [2] above 10000 nM.

As to `Cn1nc(NS(C)(=O)=O)c2c(Cl)ccc(-n3c([C@H](Cc4cc(F)cc(F)c4)NC(=O)Cc4c[nH]c5ccc(F)cc45)nc4ncccc4c3=O)c21` [Example 51, N-[(1S)-1-[3-(4-chloro-3-methanesulfonamido-1-methyl-1H-indazol-7-yl)-4-oxo-3H,4H-pyrido[2,3-d]pyrimidin-2-yl]-2-(3,5-difluorophenyl)ethyl]-2-(5-fluoro-1H-indol-3-yl)acetamide], in series [1], the half-maximal effective concentration (EC50) turned out to be 1.04 nM. The molecule also displayed a CC50 at 4 days in series [2] above 1000 nM.

Consider `Cn1nc(NS(C)(=O)=O)c2c(Cl)ccc(-n3c([C@H](Cc4cc(F)cc(F)c4)NC(=O)Cn4nc(C(F)(F)F)c5c4CCC5)nc4ncccc4c3=O)c21` [Example 52, N-[(1S)-1-[3-(4-chloro-3-methanesulfonamido-1-methyl-1H-indazol-7-yl)-4-oxo-3H,4H-pyrido[2,3-d]pyrimidin-2-yl]-2-(3,5-difluorophenyl)ethyl]-2-[3-(trifluoromethyl)-1H,4H,5H,6H-cyclopenta[c]pyrazol-1-yl]acetamide], for which, in series [1], the half-maximal effective concentration (EC50) turned out to be 0.039 nM. Moreover, the CC50 at 4 days in series [2] was above 1000 nM.

Consider `Cn1nc(NS(C)(=O)=O)c2c(Cl)ccc(-n3c([C@H](Cc4cc(F)cc(F)c4)NC(=O)Cc4c[nH]c5ccc(O)cc45)nc4ncccc4c3=O)c21` [Example 53, N-[(1S)-1-[3-(4-chloro-3-methanesulfonamido-1-methyl-1H-indazol-7-yl)-4-oxo-3H,4H-pyrido[2,3-d]pyrimidin-2-yl]-2-(3,5-difluorophenyl)ethyl]-2-(5-hydroxy-1H-indol-3-yl)acetamide], for which, in series [1], the EC50 stood at 5.71 nM. Moreover, in series [2], the cytotoxic concentration (CC50) at 4 days is above 1000 nM.

As for `O=C(Cn1nc(C(F)F)c2c1C(F)(F)[C@@H]1C[C@H]21)NC(Cc1cc(F)cc(F)c1)c1nc2cc[nH]c2cc1-c1ccc2c(c1)C(=O)NC2` (stereo partly drawn) [Example 61, 2-((3bS,4aR)-3-(difluoromethyl)-5,5-difluoro-3b,4,4a,5-tetrahydro-1H-cyclopropa[3,4]cyclopenta[1,2-c]pyrazol-1-yl)-N-(2-(3,5-difluorophenyl)-1-(6-(3-oxoisoindolin-5-yl)-1H-pyrrolo[3,2-b]pyridin-5-yl)ethyl)acetamide], in series [1], the EC50 amounted to 4.51 nM. In series [2], this molecule showed a CC50 at 4 days above 10000 nM.

Take `Nc1c(-c2ccc3c(c2)C(=O)NC3)c([C@H](Cc2cc(F)cc(F)c2)NC(=O)Cn2nc(C(F)F)c3c2C(F)(F)[C@@H]2C[C@H]32)nc2ncnn12` [Example 62, N—((S)-1-(7-amino-6-(3-oxoisoindolin-5-yl)-[1,2,4]triazolo[1,5-a]pyrimidin-5-yl)-2-(3,5-difluorophenyl)ethyl)-2-((3bS,4aR)-3-(difluoromethyl)-5,5-difluoro-3b,4,4a,5-tetrahydro-1H-cyclopropa[3,4]cyclopenta[1,2-c]pyrazol-1-yl)acetamide]: the concentration for a half-maximal effect (EC50) in series [1] worked out at 86.3 nM. In series [2], this molecule gave a half-maximal cytotoxic concentration (CC50) at 4 days above 10000 nM.

For the molecule `O=C(Cn1nc(C(F)F)c2c1C(F)(F)[C@@H]1C[C@H]21)N[C@@H](Cc1cc(F)cc(F)c1)c1nc2cc[nH]c2cc1-c1ccc(S(=O)(=O)N2CCOCC2)cc1` [Example 65, 2-((3bS,4aR)-3-(difluoromethyl)-5,5-difluoro-3b,4,4a,5-tetrahydro-1H-cyclopropa[3,4]cyclopenta[1,2-c]pyrazol-1-yl)-N—((S)-2-(3,5-difluorophenyl)-1-(6-(4-(morpholinosulfonyl)phenyl)-1H-pyrrolo[3,2-b]pyridin-5-yl)ethyl)acetamide], the concentration giving a half-maximal response (EC50) in series [1] is 2.03 nM. Besides, in series [2], the CC50 at 4 days was 2000 nM.
